Reference: ChEMBL document CHEMBL5728788, “Inhibitors of dihydroceramide desaturase for treating disease” (2021)

target: T1, Sphingolipid delta(4)-desaturase DES1 (Homo sapiens, UniProt O15121); experiment: Des1 Activity Assays: Jurkat clone E6-1 cells were grown and then seeded at 10^6 cells/mL in a 96-well plate (400 μL in each well. The cells were administered 100 μL of cell culture media containing 50-μM NBD-C6-dihydroceramide (Des1 substrate), affording a final concentration of substrate of 10 μM. The cells were incubated with substrate at 4° C. for 30 minutes. Following the incubation at 4° C., the cell suspension was centrifuged at 1200 rpm for 3 minutes, and the cell pellet is resuspended in 400 μL of fresh media containing various concentrations of either fenretinide (known Des1 inhibitor control compound) or test article. The final concentrations of control compound and test compounds were tested in a range from 0-10 μM. The cells and compounds were incubated at 37° C. for 3 hours. Following the 3-hour incubation, the plate was centrifuged at 2500 g for 3 minutes at 4° C., followed by collection and transfer of 200 μL of the supernatant to a new 96-well plate with 300 μL of methanol an containing appropriate internal standards for liquid chromatography/tandem mass spectroscopy (LC/MS/MS) analysis (internal standard: 500 nM labetalol and 100 nM alprazolam). The samples were vortexed for 2 minutes followed by centrifugation at 3,220 g for 20 minutes. Following centrifugation, 200 μL of the supernatant was transferred to a new 96-well plate for LC-MS/MS analysis to determine the amount of NBD-C6-ceramide (Des1 product) produced. The assay was typically performed in duplicate. A reduction of at least 30% compared to vehicle control (0 μM test article) is indicative of an active compound, and a reduction of 75% compared to vehicle control is preferred.; format: cell-based
T1 sequence (O15121 whole entry): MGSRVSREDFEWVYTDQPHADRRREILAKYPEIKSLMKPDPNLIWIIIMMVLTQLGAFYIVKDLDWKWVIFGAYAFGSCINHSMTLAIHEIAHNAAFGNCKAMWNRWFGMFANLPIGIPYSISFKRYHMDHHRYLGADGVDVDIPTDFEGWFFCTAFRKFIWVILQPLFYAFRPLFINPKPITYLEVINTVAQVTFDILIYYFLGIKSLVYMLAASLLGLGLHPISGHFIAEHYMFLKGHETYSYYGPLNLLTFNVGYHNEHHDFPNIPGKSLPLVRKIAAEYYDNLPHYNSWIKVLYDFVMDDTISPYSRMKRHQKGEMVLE

Compound | IC50
O=C(Cc1ccccc1)Nc1ccc(O)cn1 | 4500 nM
O=C(Nc1ccc(O)cn1)c1ccc(-c2cccnc2)cc1 | 130 nM
O=C(CC1CCN(c2ccc(Cl)cn2)CC1)Nc1ccc(O)cn1 | 3.9 nM
